Measurements published in PMC11649115, “In vitro safety evaluation of dopamine D3R antagonist, R-VK4-116, as a potential medication for the treatment of opioid use disorder” (PLOS ONE, 2024).
Like-named read-outs stand apart in the source and are kept apart here.

Experiments:
CYP1A2 mRNA = experiment: CYP induction, mRNA, primary cultured human hepatocytes; format: in vitro ADME; settings: read-out: CYP1A2 mRNA Fold Induction (fold of vehicle control)
Source text: Rifampicin as a positive control and solvent (0.1% DMSO) vehicle control were also included. The acceptance criteria for CYP induction was ≥ 2-fold induction for significant CYP activity, while the acceptance criteria for CYP mRNA was ≥ 4-fold for significant CYP induction.

OAT1 = molecular target: T1, OAT1 (Homo sapiens, UniProt Q4U2R8); experiment: Transporter mediated assay (substrate/inhibitor), MDCK-II cells; format: in vitro ADME
T1 construct: expressed in transfected cells; host or cells: MDCK-II cells
T1 sequence (Q4U2R8 1-563): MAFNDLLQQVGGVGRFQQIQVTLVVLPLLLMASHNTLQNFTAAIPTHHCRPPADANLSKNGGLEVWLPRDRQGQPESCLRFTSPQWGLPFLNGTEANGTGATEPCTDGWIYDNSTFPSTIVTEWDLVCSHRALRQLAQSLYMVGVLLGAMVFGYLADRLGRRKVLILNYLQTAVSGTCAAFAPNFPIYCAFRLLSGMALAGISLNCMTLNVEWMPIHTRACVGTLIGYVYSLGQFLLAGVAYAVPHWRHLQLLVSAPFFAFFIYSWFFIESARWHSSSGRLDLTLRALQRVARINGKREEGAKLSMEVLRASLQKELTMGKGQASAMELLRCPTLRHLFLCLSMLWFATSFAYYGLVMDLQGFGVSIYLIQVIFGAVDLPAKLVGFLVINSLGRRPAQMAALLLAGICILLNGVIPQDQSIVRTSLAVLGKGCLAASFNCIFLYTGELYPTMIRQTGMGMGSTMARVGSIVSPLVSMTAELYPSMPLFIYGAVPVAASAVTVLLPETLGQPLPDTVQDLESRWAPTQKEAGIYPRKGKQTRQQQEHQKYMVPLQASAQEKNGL
Method: The MDCK-II cells were treated to express the transporter of interest. The transport of each probe substrate was determined by radiometric detection (Fig 1 in S1 File). […] For the uptake assay, the net transporter-mediated uptake-rate (V) of the substrate by each SLC transporter was calculated as follows: Transporter–mediatedupdaterate(pmol/min/cm^2)=(Cellularaccumulationincellsexpressingthetransporter)−(Meancellularaccumulationincontrolcells)/Surfacearea×incubationtime

MATE2-K = molecular target: T2, MATE2-K (Homo sapiens, UniProt Q86VL8); experiment: as above; format: in vitro ADME
T2 construct: expressed in transfected cells; host or cells: MDCK-II cells
Method: The MDCK-II cells were treated to express the transporter of interest. […] For the uptake assay, the net transporter-mediated uptake-rate (V) of the substrate by each SLC transporter was calculated as follows: Transporter–mediatedupdaterate(pmol/min/cm^2)=(Cellularaccumulationincellsexpressingthetransporter)−(Meancellularaccumulationincontrolcells)/Surfacearea×incubationtime
Fold of activity and percent inhibition were determined as follows: Foldofactivity=(Meanuptakerate)transporterexpressingcells/(Meanuptakerate)controlcells Percentinhibition=100−100×(Transport‐mediatedupdaterate)withinhibitor/(Transport‐mediatedupdaterate)vehiclecontrol

P-gp = molecular target: T3, P-gp (Homo sapiens, UniProt P08183); experiment: as above; format: in vitro ADME; settings: human
T3 construct: expressed in transfected cells; host or cells: MDCK-II cells
Method: The MDCK-II cells were treated to express the transporter of interest.
For BCRP and P-gp, the apparent permeability Papp and Efflux Ratio (ER) were calculated [16]. Net basal (B) to apical (A) flux (B → A) of the substrate transport (pmol/min/cm^2) by BCRP or P-gp was calculated by subtracting A → B flux from B → A flux.

HepG2 cells = experiment: Mitochondrial toxicity (MT) assay panel; format: cell-based
Method: The assay results were presented as % cell viability. […] After each incubation, the cells were harvested and lysed to test the MT assay panel. The Zalcitabine (positive control) was also included in this assay (Fig 3 in S1 File). The levels of Mitochondrial Oxidative Phosphorylation (OXPHOS) complex 1 (NADH dehydrogenase; ab178011, lot #GR 3339973–1), complex 3 (CytC reductase; ab124537, lot #GR3276896-3), complex 4 (CytC Oxidase; ab179880, lot #GR3273194-1), and complex 5 (ATP synthase; ab124539, lot #GR3267780-4) in the cell lysates were determined using respective indirect ELISA as per manufacturer’s instructions. The total ATP content of the cell lysates was determined using an ATP assay kit (ab83355, lot #GR3314128-2, Abcam, Cambridge, MA). The Caspase 3 content of the cell lysates was determined using the Caspase-3 assay kit (ab39401, lot #GR3322733-1, Abcam, Cambridge, MA). In addition, the total glutathione content was determined using the total glutathione (GSSG/GSH) assay kit (STA-312, lot #09100263, Oxiselect™, San Diego, CA). Using an Oxiselect™ ROS/RNS assay kit (STA-347, lot #7081343, Cell Biolabs Inc. San Diego, CA), the ROS/RNS content of the cell lysates was determined by fluorescence assay.

CHEK2 = molecular target: T4, CHEK2 (Homo sapiens, UniProt O96017); experiment: KINOMEscan binding (% Ctrl, Kd)
T4 construct: made in house; host or cells: E. coli BL21-derived host (T7 phage) or HEK-293
Method: (§1) Briefly, E. coli host derived from the BL21 strain were grown to log-phase and infected with kinase-tagged T7 phage and incubated with shaking at 32°C until lysis. The lysates were centrifuged and filtered to remove cell debris. The remaining kinases were produced in HEK-293 cells and subsequently tagged with DNA for qPCR detection. Streptavidin-coated magnetic beads were treated with biotinylated small molecule ligands to generate affinity resins for kinase assays. The liganded beads were blocked with excess biotin and washed to remove unbound ligand and to reduce non-specific phage binding. […] Selectivity Score (S-score) was a quantitative measure of compound selectivity. […] The binding constants (Kds) were also determined with a standard dose-response curve using the Hill equation and Levenberg-Marquardt algorithm [24, 25].

MARK3 = molecular target: T5, MARK3 (Homo sapiens, UniProt P27448); experiment: KINOMEscan binding (% Ctrl, Kd)
T5 construct: made in house; host or cells: E. coli BL21-derived host (T7 phage) or HEK-293
Method: as §1

D3R = molecular target: D3R; parameters: method as in PMID 31526003; settings: read-out: binding affinity for D3R (Ki); cited from earlier work
[1] = Metabolic stability in hepatocyte; settings: Beagle, dog, hepatocytes in suspension
Method: (§2) CYP3A4 substrate Midazolam (10 μM) was prepared and incubated in the same manner. […] In addition, in vitro half-life (t1/2, min) and intrinsic clearance (CLint, μl/min/10^6 cells) were calculated [10, 11].

dog hepatocytes = experiment: Metabolic stability in hepatocyte; settings: dog hepatocytes
Method: as §2

[2] = Metabolic stability in liver microsomes; settings: rat, pH 7.4
hERG = hERG (Homo sapiens, UniProt Q12809); experiment: CiPA IonChannelProfiler Cardiac Panel, QPatch
[3] = MDCK-MDR1, P-gp, substrate test, 1 µM
[4] = HepG2, 0.1, 1 and 10 μM, 7- and 14-day
[5] = 11-point curve 0.001 to 10 μM, read-out: binding constant (Kd)
[6] = heat-inactivated liver microsomes

T4 sequence (O96017 whole entry): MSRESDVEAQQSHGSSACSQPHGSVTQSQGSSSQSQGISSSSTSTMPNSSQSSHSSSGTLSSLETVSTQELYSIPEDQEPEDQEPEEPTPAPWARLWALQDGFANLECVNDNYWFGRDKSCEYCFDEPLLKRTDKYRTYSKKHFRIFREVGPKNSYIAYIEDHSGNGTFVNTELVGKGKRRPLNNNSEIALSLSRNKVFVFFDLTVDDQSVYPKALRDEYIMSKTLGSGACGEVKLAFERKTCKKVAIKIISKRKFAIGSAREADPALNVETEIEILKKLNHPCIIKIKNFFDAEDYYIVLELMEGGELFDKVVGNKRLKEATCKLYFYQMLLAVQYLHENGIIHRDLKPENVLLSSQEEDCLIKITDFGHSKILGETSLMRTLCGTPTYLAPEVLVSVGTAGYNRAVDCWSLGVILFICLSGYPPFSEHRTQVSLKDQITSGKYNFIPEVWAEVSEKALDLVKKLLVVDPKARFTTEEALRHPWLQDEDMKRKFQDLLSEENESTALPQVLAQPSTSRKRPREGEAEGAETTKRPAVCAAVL
T3 sequence (P08183 whole entry): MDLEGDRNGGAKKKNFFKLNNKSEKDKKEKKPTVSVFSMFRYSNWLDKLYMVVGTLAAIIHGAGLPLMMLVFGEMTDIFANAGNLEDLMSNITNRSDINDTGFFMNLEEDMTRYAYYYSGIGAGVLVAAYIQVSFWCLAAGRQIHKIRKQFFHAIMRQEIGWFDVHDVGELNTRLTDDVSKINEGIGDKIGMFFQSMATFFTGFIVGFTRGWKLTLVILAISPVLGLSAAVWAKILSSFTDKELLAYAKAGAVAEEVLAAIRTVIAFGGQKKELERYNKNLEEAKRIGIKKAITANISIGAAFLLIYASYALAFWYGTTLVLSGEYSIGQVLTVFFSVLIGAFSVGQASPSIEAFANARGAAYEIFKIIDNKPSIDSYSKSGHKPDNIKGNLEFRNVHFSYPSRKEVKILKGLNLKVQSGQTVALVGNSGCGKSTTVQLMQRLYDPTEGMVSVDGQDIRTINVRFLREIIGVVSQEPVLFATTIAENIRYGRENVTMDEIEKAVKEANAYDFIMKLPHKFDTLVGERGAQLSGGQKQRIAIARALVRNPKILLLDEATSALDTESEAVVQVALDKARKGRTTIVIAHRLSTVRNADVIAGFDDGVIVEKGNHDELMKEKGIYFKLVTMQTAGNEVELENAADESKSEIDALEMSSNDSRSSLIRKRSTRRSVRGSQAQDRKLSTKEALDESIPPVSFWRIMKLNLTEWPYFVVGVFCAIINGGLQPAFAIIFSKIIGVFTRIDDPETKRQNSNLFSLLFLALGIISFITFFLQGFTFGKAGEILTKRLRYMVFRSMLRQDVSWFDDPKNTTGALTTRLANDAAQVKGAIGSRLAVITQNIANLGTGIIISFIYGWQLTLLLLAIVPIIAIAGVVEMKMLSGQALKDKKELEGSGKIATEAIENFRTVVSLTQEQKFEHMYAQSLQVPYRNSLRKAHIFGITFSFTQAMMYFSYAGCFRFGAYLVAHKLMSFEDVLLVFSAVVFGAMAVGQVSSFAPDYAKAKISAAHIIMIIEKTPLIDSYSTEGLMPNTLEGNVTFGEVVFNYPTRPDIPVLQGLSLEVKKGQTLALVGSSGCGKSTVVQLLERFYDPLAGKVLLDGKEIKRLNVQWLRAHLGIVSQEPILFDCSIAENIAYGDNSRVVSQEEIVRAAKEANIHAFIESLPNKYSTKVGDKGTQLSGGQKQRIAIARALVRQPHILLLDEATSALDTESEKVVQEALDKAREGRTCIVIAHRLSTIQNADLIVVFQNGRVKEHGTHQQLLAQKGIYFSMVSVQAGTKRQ
Chain of hERG (Q12809 whole entry): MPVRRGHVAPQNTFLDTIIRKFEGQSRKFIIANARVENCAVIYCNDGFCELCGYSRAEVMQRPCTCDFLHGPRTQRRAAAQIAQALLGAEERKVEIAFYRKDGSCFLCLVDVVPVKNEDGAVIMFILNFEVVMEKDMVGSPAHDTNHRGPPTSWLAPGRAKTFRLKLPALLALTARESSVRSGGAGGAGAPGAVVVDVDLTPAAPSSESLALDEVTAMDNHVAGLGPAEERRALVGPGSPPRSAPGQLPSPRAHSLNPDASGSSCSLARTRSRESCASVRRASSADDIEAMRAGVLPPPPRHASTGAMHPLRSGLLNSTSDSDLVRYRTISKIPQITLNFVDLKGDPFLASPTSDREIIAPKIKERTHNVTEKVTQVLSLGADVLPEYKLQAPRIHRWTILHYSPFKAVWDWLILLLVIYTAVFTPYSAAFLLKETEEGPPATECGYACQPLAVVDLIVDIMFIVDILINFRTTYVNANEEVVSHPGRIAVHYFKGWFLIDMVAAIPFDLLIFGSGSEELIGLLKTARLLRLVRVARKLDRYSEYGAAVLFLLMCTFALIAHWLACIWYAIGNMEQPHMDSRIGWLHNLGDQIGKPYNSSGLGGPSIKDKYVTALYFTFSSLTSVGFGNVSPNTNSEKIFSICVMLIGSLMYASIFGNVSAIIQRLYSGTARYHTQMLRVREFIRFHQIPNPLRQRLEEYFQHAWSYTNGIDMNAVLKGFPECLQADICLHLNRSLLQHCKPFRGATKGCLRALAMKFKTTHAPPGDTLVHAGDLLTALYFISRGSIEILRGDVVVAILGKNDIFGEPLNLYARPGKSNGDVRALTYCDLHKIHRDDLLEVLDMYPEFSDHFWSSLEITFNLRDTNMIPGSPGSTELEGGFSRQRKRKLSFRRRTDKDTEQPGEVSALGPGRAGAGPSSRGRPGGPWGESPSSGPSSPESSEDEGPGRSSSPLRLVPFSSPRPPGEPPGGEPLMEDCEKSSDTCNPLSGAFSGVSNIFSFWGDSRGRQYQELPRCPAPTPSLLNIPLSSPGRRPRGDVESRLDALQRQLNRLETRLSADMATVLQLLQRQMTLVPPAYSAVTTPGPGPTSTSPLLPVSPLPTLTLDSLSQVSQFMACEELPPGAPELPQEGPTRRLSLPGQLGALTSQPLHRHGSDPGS
T5 sequence (P27448 whole entry): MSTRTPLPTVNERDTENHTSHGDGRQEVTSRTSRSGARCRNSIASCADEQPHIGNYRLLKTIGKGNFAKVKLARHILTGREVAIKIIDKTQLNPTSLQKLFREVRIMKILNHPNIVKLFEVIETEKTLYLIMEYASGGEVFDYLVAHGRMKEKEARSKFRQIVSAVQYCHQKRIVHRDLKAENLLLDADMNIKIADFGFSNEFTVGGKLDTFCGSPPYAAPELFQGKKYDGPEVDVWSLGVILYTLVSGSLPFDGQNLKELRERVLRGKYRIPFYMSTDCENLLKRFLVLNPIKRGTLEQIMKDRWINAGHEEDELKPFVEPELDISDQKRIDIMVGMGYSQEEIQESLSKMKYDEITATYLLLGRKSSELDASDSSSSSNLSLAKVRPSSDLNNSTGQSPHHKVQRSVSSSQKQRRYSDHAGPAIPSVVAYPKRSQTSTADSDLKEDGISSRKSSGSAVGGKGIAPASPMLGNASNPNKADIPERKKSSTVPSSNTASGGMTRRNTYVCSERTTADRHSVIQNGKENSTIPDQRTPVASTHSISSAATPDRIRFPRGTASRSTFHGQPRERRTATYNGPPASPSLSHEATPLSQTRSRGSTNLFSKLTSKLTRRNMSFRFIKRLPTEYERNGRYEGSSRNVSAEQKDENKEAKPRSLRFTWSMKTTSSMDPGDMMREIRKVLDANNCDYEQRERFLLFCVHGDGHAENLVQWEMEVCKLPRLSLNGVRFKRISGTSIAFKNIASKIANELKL
T2 sequence (Q86VL8 1-566 isoform Q86VL8-3): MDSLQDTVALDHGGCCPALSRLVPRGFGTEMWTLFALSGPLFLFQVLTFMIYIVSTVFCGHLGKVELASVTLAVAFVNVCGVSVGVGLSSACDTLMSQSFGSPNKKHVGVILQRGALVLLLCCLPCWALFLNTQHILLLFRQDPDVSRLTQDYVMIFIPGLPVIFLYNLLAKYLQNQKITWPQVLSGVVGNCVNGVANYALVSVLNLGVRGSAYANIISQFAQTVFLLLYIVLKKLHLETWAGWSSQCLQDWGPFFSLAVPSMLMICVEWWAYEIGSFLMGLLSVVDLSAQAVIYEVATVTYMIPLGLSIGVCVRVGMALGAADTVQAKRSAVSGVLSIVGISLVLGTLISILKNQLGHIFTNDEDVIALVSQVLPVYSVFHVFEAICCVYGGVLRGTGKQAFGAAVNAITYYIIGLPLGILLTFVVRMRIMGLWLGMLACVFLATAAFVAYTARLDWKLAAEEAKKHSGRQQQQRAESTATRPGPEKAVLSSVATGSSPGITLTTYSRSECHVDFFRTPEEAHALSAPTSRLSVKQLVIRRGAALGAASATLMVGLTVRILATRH

## CCc1cc(Cl)c(OC)c(N2CCN(CC(O)CCNC(=O)c3cc4ccccc4[nH]3)CC2)c1 (stereo not shown) [R-VK4-116, N-(4-(4-(3-chloro-5-ethyl-2-methoxyphenyl)piperazin-1-yl)-3-hydroxybutyl)-1H-indole-2-carboxamide]
CYP1A2 mRNA; Lot 336, 0.01 μM
  fold induction at 48 h, 0.01 µM: 1.1
CYP1A2 mRNA; Lot 336, 0.1 μM
  fold induction at 48 h, 0.1 µM: 1.2
CYP1A2 mRNA; Lot 336, 1 μM
  fold induction at 48 h, 1 µM: 1.6
CYP1A2 mRNA; Lot 336, 3 μM
  fold induction at 48 h, 3 µM: 1.9
CYP1A2 mRNA; Lot 336, 5 μM
  fold induction at 48 h, 5 µM: 1.8
CYP1A2 mRNA; Lot 336, 10 μM
  fold induction at 48 h, 10 µM: 1.9
CYP1A2 mRNA; Lot 348B, 0.01 μM
  fold induction at 48 h, 0.01 µM: 1.1
CYP1A2 mRNA; Lot 348B, 0.1 μM
  fold induction at 48 h, 0.1 µM: 1.4
CYP1A2 mRNA; Lot 348B, 1 μM
  fold induction at 48 h, 1 µM: 1.3
CYP1A2 mRNA; Lot 348B, 3 μM
  fold induction at 48 h, 3 µM: 1.5
CYP1A2 mRNA; Lot 348B, 5 μM
  fold induction at 48 h, 5 µM: 1.6
CYP1A2 mRNA; Lot 348B, 10 μM
  fold induction at 48 h, 10 µM: 1.5
CYP1A2 mRNA; Lot 399, 0.01 μM
  fold induction at 48 h, 0.01 µM: 1.6
CYP1A2 mRNA; Lot 399, 0.1 μM
  fold induction at 48 h, 0.1 µM: 1.8
CYP1A2 mRNA; Lot 399, 1 μM
  fold induction at 48 h, 1 µM: 1.7
CYP1A2 mRNA; Lot 399, 3 μM
  fold induction at 48 h, 3 µM: 1.9
CYP1A2 mRNA; Lot 399, 5 μM
  fold induction at 48 h, 5 µM: 1.6
CYP1A2 mRNA; Lot 399, 10 μM
  fold induction at 48 h, 10 µM: 1.6
OAT1; OAT1, 1 μM, transporter cells vs control cells
  fold difference in mean uptake rate (substrate test): < 2 fold
OAT1; OAT1, 0.1% BSA, 10 μM
  Inhibition (%): no statistically significant inhibition
OAT1; human, polarized monolayer of MDCK-II cells expressing OAT1, OAT1, 0.1% BSA, 10 μM
  inhibition at 10 µM: 8.97 ± 1.58%
MATE2-K; 1 μM, transporter cells vs control cells
  fold difference in mean uptake rate (substrate test): < 2 fold
MATE2-K; human, polarized monolayer of MDCK-II cells expressing MATE2-K, 0.1% BSA, 10 μM
  inhibition at 10 µM: 37.8 ± 9.26%
P-gp; [3]
  Papp A→B at 1 µM: < 0.2 ×10⁻⁶ cm/s
  Papp B→A at 1 µM: < 0.1 ×10⁻⁶ cm/s
P-gp; probe quinidine 0.1 μM
  inhibition at 10 µM: 56.5 ± 6.17%
HepG2 cells; [4]
  OXPHOS complex 1, 3, 4, and 5 or total ATP levels: No significant decrease
  caspase 3, or total glutathione levels: no significant increase
HepG2 cells; HepG2, 7-days, all three concentrations (0.1, 1, 10 μM)
  increase in ROS/RNS levels compared with the solvent control: 10–35%
CHEK2; [5]
  Kd: > 10 µM
CHEK2; read-out: %Control
  remaining binding at 1 µM: < 35%
CHEK2; read-out: Gene (S-score with % control): CHEK2
  remaining binding at 1 µM: 19%
MARK3; [5]
  Kd: > 10 µM
MARK3; read-out: %Control
  remaining binding at 1 µM: < 35%
MARK3; read-out: Gene (S-score with % control): MARK3
  remaining binding at 1 µM: 0%
D3R
  Ki: 0.0074 µM
[1]
  half-life at 0.5 μM: 1.52 h
  half-life at 10 μM: 5.78 h
  hepatocyte CLint at 0.5 μM: 15.2 µL/min/1e6 cells
  hepatocyte CLint at 10 μM: 4 µL/min/1e6 cells
Dog hepatocytes; 0.5 μM, 0 min
  % remaining Vs T = 0 min: 100.0%
Dog hepatocytes; 0.5 μM, 30 min
  % remaining Vs T = 0 min: 71.2%
Dog hepatocytes; 0.5 μM, 60 min
  % remaining Vs T = 0 min: 61.2%
Dog hepatocytes; 0.5 μM, 90 min
  % remaining Vs T = 0 min: 45.4%
Dog hepatocytes; 0.5 μM, 120 min
  % remaining Vs T = 0 min: 40.1%
Dog hepatocytes; 10 μM, 0 min
  % remaining Vs T = 0 min: 100.0%
Dog hepatocytes; 10 μM, 30 min
  % remaining Vs T = 0 min: 85.3%
Dog hepatocytes; 10 μM, 60 min
  % remaining Vs T = 0 min: 85.5%
Dog hepatocytes; 10 μM, 90 min
  % remaining Vs T = 0 min: 80.3%
Dog hepatocytes; 10 μM, 120 min
  % remaining Vs T = 0 min: 76.4%
[2]; [6]
  remaining at 0 h, 1 μM: 100%
  remaining at 0 h, 10 μM: 100%
  remaining at 2 h, 1 μM: 94.9%
  remaining at 2 h, 10 μM: 95.4%
[2]; liver microsomes
  remaining at 0 h, 1 μM: 100%
  remaining at 0 h, 10 μM: 100%
  remaining at 0.5 h, 1 μM: 79.4%
  remaining at 0.5 h, 10 μM: 87.1%
  remaining at 1 h, 1 μM: 56.8%
  remaining at 1 h, 10 μM: 79.7%
  remaining at 1.5 h, 1 μM: 45.5%
  remaining at 1.5 h, 10 μM: 73.3%
  remaining at 2 h, 1 μM: 37.5%
  remaining at 2 h, 10 μM: 69.4%
hERG; 10 μM
  inhibition at 10 µM: 54.6%
hERG; 100 μM
  inhibition at 100 µM: 82.3%
hERG; ≥10 μM
  inhibition at 10 µM: 54 to 82%
